What all share (assay type): ADME, cell-based
Data set [1] can be described thus: Apparent permeability from apical to basolateral side of human Caco-2 cells at 30 uM after 90 mins. (In general: Caco-2 cells form a polarised layer with tight junctions and transporters.)
Data set [2] in a line: Apparent permeability from apical to basolateral side of human Caco-2 cells at 50 uM after 90 mins.
Data set [3] in a line: Apparent permeability from apical to basolateral side of human Caco-2 cells at 100 uM after 90 mins.
The nature of data set [4]: Apparent permeability from basolateral to apical side of human Caco-2 cells at 30 uM after 90 mins.
Data set [5] is described as follows: Apparent permeability from basolateral to apical side of human Caco-2 cells at 50 uM after 90 mins.
A short description of data set [6]: Apparent permeability from basolateral to apical side of human Caco-2 cells at 100 uM after 90 mins.
The test system of data set [7] is Caco-2. In words: Ratio of permeability from basolateral to apical side over apical to basolateral side of human Caco-2 cells at 30 uM. The following applies: caco-2, 30 µM.
Data set [8] has as its system Caco-2. In words: Ratio of permeability from basolateral to apical side over apical to basolateral side of human Caco-2 cells at 50 uM. The following applies: caco-2, 50 µM.
In data set [9] the test system is Caco-2. The data set can be described thus: Ratio of permeability from basolateral to apical side over apical to basolateral side of human Caco-2 cells at 100 uM. The note with it: caco-2, 100 µM.
Data set [10] relates to Caco-2. The data set can be described thus: Drug level in Caco-2 cells assessed as intracellular accumulation at 50 uM after 180 mins. The note with it: human, caco-2, 3 h.
Data set [11] deals with Caco-2. In words: Drug level in Caco-2 cells assessed as intracellular accumulation at 50 uM after 60 mins. The following applies: human, caco-2, 1 h.
The test system of data set [12] is Caco-2. The data set can be described thus: Drug level in Caco-2 cells assessed as intracellular accumulation at 50 uM after 90 mins. The following applies: human, caco-2, 1.5 h.
Data set [13] concerns Caco-2. The data set can be described thus: Drug level in Caco-2 cells assessed as intracellular accumulation at 50 uM after 120 mins. The following applies: human, caco-2, 2 h.
Data set [14] has as its system Caco-2. In words: Drug level in Caco-2 cells assessed as intracellular accumulation at 50 uM after 150 mins. The note with it: human, caco-2, 2.5 h.
The nature of data set [15]: Drug level in Caco-2 cells assessed as total recovery rate at 50 uM after 30 mins. The following applies: human, read-out: Drug uptake.
A short description of data set [16]: Drug level in Caco-2 cells assessed as total recovery rate at 50 uM after 60 mins. The following applies: human, read-out: Drug uptake.
The nature of data set [17]: Drug level in Caco-2 cells assessed as total recovery rate at 50 uM after 90 mins. The note with it: human, read-out: Drug uptake.
Data set [18] is described as follows: Drug level in Caco-2 cells assessed as total recovery rate at 50 uM after 120 mins. The following applies: human, read-out: Drug uptake.
Data set [19] in a line: Drug level in Caco-2 cells assessed as total recovery rate at 50 uM after 150 mins. The note with it: human, read-out: Drug uptake.
Data set [20] is described as follows: Drug level in Caco-2 cells assessed as total recovery rate at 50 uM after 180 mins. The note with it: human, read-out: Drug uptake.
Data set [21] concerns Caco-2. The data set can be described thus: Drug level in Caco-2 cells assessed as intracellular accumulation at 50 uM after 30 mins. The following applies: human, caco-2, 0.5 h.
Data set [22] in a line: Apparent permeability from apical to basolateral side of human Caco-2 cells at 50 uM in presence of iodoacetamide. The note with it: Caco-2, with iodoacetamide (concentration not stated).
A short description of data set [23]: Apparent permeability from basolateral to apical side of human Caco-2 cells at 50 uM in presence of iodoacetamide. The note with it: Caco-2, with iodoacetamide (concentration not stated).

The term Papp A→B denotes how fast a substance crosses the layer from the apical side. Usually Papp B→A stands for the apparent permeability from the basolateral to the apical side of a cell layer.

Take `CC(C)C[C@@H](c1c(O)c(C=O)c(O)c(C=O)c1O)[C@@]1(C)CC[C@@H]2[C@@H]1[C@H]1[C@@H](CC[C@@]2(C)O)C1(C)C` [MACROCARPAL A]: the apical-to-basolateral permeability (Papp A→B) at 1.5 h, 30 µM in [1] is 1.66 ×10⁻⁶ cm/s. Also, in [2], the Papp A→B at 1.5 h, 50 µM turned out to be 1.64 ×10⁻⁶ cm/s. In addition, the Papp A→B at 1.5 h, 100 µM in data set [3] came to 1.8 ×10⁻⁶ cm/s. In addition, the Papp B→A at 1.5 h, 30 µM in data set [4] was 1.63 ×10⁻⁶ cm/s. For the same molecule, in [5], the Papp B→A at 1.5 h, 50 µM is 1.68 ×10⁻⁶ cm/s. Besides, the Papp B→A at 1.5 h, 100 µM in data set [6] stood at 1.42 ×10⁻⁶ cm/s. Further, the values for the Ratio in the data set on Caco-2 [7], in the data set on Caco-2 [8] and with Caco-2 [9] were 1.02, 0.98 and 1.27, respectively. Also, the Drug uptake with Caco-2 [10] is reported as 56.67%; in the data set on Caco-2 [11], 40.79%; in the data set with Caco-2 [12] it was 44.21%; in the data set with Caco-2 [13] it was 50.42%; with Caco-2 [14], 50.57%; in the data set with Caco-2 [21] it was 36.8%. Moreover, in data set [15], the recovery at 0.5 h, 50 µM was found to be 76.4%. Also, the recovery at 1 h, 50 µM in data set [16] is 63.1%. In addition, the recovery at 1.5 h, 50 µM in data set [17] was 60.8%. The recovery at 2 h, 50 µM in [18] turned out to be 69.8%. The recovery at 2.5 h, 50 µM in data set [19] was 68.5%. Further, the recovery at 3 h, 50 µM in data set [20] stood at 75.7%.

Take `Cc1cc(=O)c2c(O)cc(O[C@@H]3O[C@H](COC(=O)C4=CC[C@H](C(C)(C)O)CC4)[C@@H](O)[C@H](O)[C@H]3O)cc2o1` [CYPELLOCARPA C]: in data set [1], the Papp A→B at 1.5 h, 30 µM came to 7.4 ×10⁻⁶ cm/s. The Papp A→B at 1.5 h, 50 µM in data set [2] is 5.99 ×10⁻⁶ cm/s. Moreover, in data set [3], the apparent permeability from apical to basolateral (Papp A→B) at 1.5 h, 100 µM is 4.82 ×10⁻⁶ cm/s. Moreover, the apparent permeability from basolateral to apical (Papp B→A) at 1.5 h, 30 µM in data set [4] is 2.66 ×10⁻⁶ cm/s. Moreover, the Papp B→A at 1.5 h, 50 µM in data set [5] was 3.32 ×10⁻⁶ cm/s. Also, the apparent permeability from basolateral to apical (Papp B→A) at 1.5 h, 100 µM in [6] stood at 2.71 ×10⁻⁶ cm/s. The Ratio in the data set with Caco-2 [7] worked out at 2.74; in the data set on Caco-2 [8] it was 1.8; in the data set on Caco-2 [9], 1.81. In data set [22], the Papp A→B at 50 µM was 0.897 ×10⁻⁶ cm/s. The Papp B→A at 50 µM in data set [23] came out at 2.46 ×10⁻⁶ cm/s. The Drug uptake in the data set with Caco-2 [10] is 0.89%; with Caco-2 [11] it was 0.83%; in the data set with Caco-2 [12], 0.81%; in the data set with Caco-2 [13] it was 0.69%; with Caco-2 [14], 0.81%; in the data set on Caco-2 [21], 1.42%. In addition, the recovery at 0.5 h, 50 µM in data set [15] was found to be 56.8%. Also, in data set [16], the recovery at 1 h, 50 µM turned out to be 53.1%. Besides, the recovery at 1.5 h, 50 µM in data set [17] came out at 52.8%. Besides, the recovery at 2 h, 50 µM in data set [18] came to 52.7%. Besides, the recovery at 2.5 h, 50 µM in data set [19] amounted to 54.6%. In data set [20], the recovery at 3 h, 50 µM is 52.5%.

For the molecule `CC(C)C[C@H](c1c(O)c(C=O)c(O)c(C=O)c1O)[C@@]1(C)CC[C@@H]2[C@@H]1[C@H]1[C@@H](CC[C@@]2(C)O)C1(C)C` [MACROCARPAL B], the apparent permeability from apical to basolateral (Papp A→B) at 1.5 h, 30 µM in [1] is 2.29 ×10⁻⁶ cm/s. Besides, in [2], the Papp A→B at 1.5 h, 50 µM was found to be 1.71 ×10⁻⁶ cm/s. For the same molecule, the Papp A→B at 1.5 h, 100 µM in data set [3] came out at 1.64 ×10⁻⁶ cm/s. Moreover, in data set [4], the apparent permeability from basolateral to apical (Papp B→A) at 1.5 h, 30 µM is 1.84 ×10⁻⁶ cm/s. For the same molecule, in [5], the basolateral-to-apical permeability (Papp B→A) at 1.5 h, 50 µM turned out to be 2 ×10⁻⁶ cm/s. Besides, in data set [6], the Papp B→A at 1.5 h, 100 µM was found to be 2.14 ×10⁻⁶ cm/s. The Ratio in the data set on Caco-2 [7] is given as 1.25; with Caco-2 [8] it was 0.85; in the data set on Caco-2 [9] it was 0.77. Moreover, the Drug uptake in the data set on Caco-2 [10] is 49.26%; in the data set on Caco-2 [11] it was 50.56%; in the data set with Caco-2 [12], 46.98%; with Caco-2 [13], 63.25%; in the data set with Caco-2 [14], 53.21%; in the data set on Caco-2 [21], 41.19%. The recovery at 0.5 h, 50 µM in data set [15] was determined as 50%. Moreover, the recovery at 1 h, 50 µM in data set [16] was found to be 56.6%. For the same molecule, in data set [17], the recovery at 1.5 h, 50 µM amounted to 64.7%. The recovery at 2 h, 50 µM in data set [18] came out at 68.7%. The recovery at 2.5 h, 50 µM in data set [19] amounted to 59.5%. Besides, the recovery at 3 h, 50 µM in data set [20] was found to be 55.5%.

Source of the values: ChEMBL document CHEMBL1138427, “Intestinal permeability of antivirus constituents from the fruits of Eucalyptus globulus Labill. in Caco-2 Cell Model” (Bioorg Med Chem Lett, 2007).
